One may read the IC50 as the concentration at which inhibition is half-maximal. A high value points to weaker potency in that assay.

The test concerns the target T1, ClC-3 (long-ClC-3A) (Homo sapiens, UniProt P51790).
T1 sequence (P51790 1-818): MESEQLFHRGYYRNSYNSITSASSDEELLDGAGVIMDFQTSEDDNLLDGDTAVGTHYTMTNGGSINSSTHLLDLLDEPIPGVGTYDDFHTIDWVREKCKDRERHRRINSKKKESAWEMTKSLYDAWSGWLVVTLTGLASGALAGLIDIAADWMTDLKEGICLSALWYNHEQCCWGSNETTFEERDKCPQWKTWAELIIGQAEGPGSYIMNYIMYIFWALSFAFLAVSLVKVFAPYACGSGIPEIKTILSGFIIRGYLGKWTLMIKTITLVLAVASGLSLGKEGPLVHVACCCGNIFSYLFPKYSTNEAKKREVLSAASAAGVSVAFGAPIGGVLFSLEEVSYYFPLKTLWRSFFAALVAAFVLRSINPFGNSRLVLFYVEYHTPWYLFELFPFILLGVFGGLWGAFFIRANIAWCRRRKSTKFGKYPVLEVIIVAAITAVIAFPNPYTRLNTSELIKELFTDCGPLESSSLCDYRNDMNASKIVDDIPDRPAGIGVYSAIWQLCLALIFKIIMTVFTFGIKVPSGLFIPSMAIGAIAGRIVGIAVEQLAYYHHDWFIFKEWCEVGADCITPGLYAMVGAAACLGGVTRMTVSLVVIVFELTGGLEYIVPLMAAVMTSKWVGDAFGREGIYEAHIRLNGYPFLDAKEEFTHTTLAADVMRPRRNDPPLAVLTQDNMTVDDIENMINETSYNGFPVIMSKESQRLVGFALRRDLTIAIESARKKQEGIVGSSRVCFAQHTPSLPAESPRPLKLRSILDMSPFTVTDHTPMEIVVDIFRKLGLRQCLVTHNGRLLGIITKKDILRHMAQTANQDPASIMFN
Briefly: whole-cell patch clamp, inhibitor in pipette. In kind it is cell-based. In general terms: Patch clamp records ionic current or voltage across a cell membrane.

`O=P(O)(O)O[C@H]1[C@H](OP(=O)(O)O)[C@@H](OP(=O)(O)O)[C@@H](O)[C@@H](O)[C@@H]1OP(=O)(O)O` [Ins(3,4,5,6)P4] gave a half-inhibitory concentration (IC50) of 4.6 µM.

For the origin of these results see publication PMC2631652 (Current biology : CB, 2008).
